In brackets after ≈: the same amount, converted by molar mass. Like-named read-outs stand apart in the source and are kept apart here.
Legend:
[1] = test system: M. tuberculosis H37Rv; assay: microbe, parasite or virus in culture; type: cell-based; settings: Mycobacterium tuberculosis, read-out: MIC90 MABA
[2] = test system: M. tuberculosis H37Rv; assay: microbe, parasite or virus in culture; type: cell-based; settings: Mycobacterium tuberculosis, read-out: MIC90 LORA

SMILES: CO[C@H]1/C=C/O[C@@]2(C)Oc3c(C)c(O)c4c(O)c(c(/C=N/N5CCN(C)CC5)c(O)c4c3C2=O)NC(=O)/C(C)=C\C=C\[C@H](C)[C@H](O)[C@@H](C)[C@@H](O)[C@@H](C)[C@H](OC(C)=O)[C@@H]1C [Rifampin (RMP), Rifampin]
- MIC90 [1]: 0.13 µM (≈ 0.107 µg/mL)
- MIC90 [2]: 0.46 µM (≈ 0.379 µg/mL)
